Experimental data reported in ChEMBL document CHEMBL1150476, “Peptoid mimics of a C2-symmetric inhibitor of the HIV-1 protease” (Bioorg Med Chem Lett, 1994).

What was measured:
[1] = target: Human immunodeficiency virus type 1 protease (Human immunodeficiency virus 1) (UniProt Q72874); assay: Concentration required for inhibitory activity against HIV-1 protease at concentration of 10e-5 M by using HKARVL-(pNO2)F-EAnLSNH2 as substrate; No significant activity
[2] = target: Human immunodeficiency virus type 1 protease (Human immunodeficiency virus 1) (UniProt Q72874); assay: Concentration required for inhibitory activity against HIV-1 protease at concentration of 10e-5 M by using SQN-(pNO2)F-PIV as substrate; No significant activity
[3] = target: Human immunodeficiency virus type 1 protease (Human immunodeficiency virus 1) (UniProt Q72874); assay: Concentration required for inhibitory activity against HIV-1 protease at concentration of 10e-5 M by using TLNFPIS AMC as substrate; No significant activity

Measured: Activity

CC(C)NCC(=O)N(CC(=O)N(Cc1ccccc1)CC(O)CN(Cc1ccccc1)C(=O)CN(C(=O)CNC(C)C)C(C)C)C(C)C
inactive: [1] No significant activity | [2] No significant activity | [3] No significant activity

CC(C)N(CC(=O)N(Cc1ccccc1)CC(O)CN(Cc1ccccc1)C(=O)CN(C(=O)CN(C(=O)OC(C)(C)C)C(C)C)C(C)C)C(=O)CN(C(=O)OC(C)(C)C)C(C)C
inactive: [1] No significant activity | [2] No significant activity | [3] No significant activity

CCCCCCCC/C=C\CCCCCCCC(=O)N(CC(=O)N(CC(=O)N(Cc1ccccc1)CC(O)CN(Cc1ccccc1)C(=O)CN(C(=O)CN(C(=O)CCCCCCC/C=C\CCCCCCCC)C(C)C)C(C)C)C(C)C)C(C)C
inactive: [1] No significant activity | [2] No significant activity | [3] No significant activity

CC(C)N(CC(=O)N(Cc1ccccc1)CC(O)CN(Cc1ccccc1)C(=O)CN(C(=O)CN(C(=O)OCc1ccccc1)C(C)C)C(C)C)C(=O)CN(C(=O)OCc1ccccc1)C(C)C
inactive: [1] No significant activity | [2] No significant activity | [3] No significant activity

CC(C)N(CC(=O)N(Cc1ccccc1)CC(O)CN(Cc1ccccc1)C(=O)CN(C(=O)CN(C(=O)CCC(=O)O)C(C)C)C(C)C)C(=O)CN(C(=O)CCC(=O)O)C(C)C
inactive: [1] No significant activity | [2] No significant activity | [3] No significant activity
